Assay results: PMC12655457, “Does CytoSorb Interfere with Immunosuppression? A Pharmacokinetic and Functional Evaluation” (Pharmaceutics, 2025)

Experiments:
[1] = Static CytoSorb adsorption setup (spiked plasma with CytoSorb resin); type: in vitro ADME, human; details: plasma:resin 1:10 v/v, 60 min, 37 °C, n = 3
Method: Plasma was obtained by centrifugation (3500× g, 10 min) from citrate-anticoagulated human whole blood and spiked with immunosuppressants to defined target concentrations (Table 1). To evaluate adsorption, plasma was incubated with the CytoSorb resin at 1:10 (v/v) for 60 min at 37 °C on a roller mixer. In parallel, a separate aliquot of spiked plasma was incubated with autologous blood cells (1:1, v/v) to assess cellular uptake of immunosuppressants. Untreated spiked plasma served as control (Figure 1a). Samples were collected before and after incubation for subsequent analysis.
(§1) MPA was determined using a validated test for the Cobas c311 autoanalyzer from Roche (Basel, Switzerland). 6-MP was quantified by reversed-phase HPLC [17, 18]. After precipitation of the plasma sample with ice cold methanol in ratio 1:5, 30 µL of the supernatant was injected into a Nukleosil 100-5C18, 4.6 × 150 mm C18 column (Macherey-Nagel, Düren, Germany), combined with an Onyx Monolithic C18, 4.6 × 5 mm guard column (Phenomenex, Torrance, CA, USA). The mobile phase consisted of methanol and deionised water (50:50) which was continuously pumped with a flow rate of 0.8 mL/min for five minutes. 6-MP was quantified with a retention time of 2.3 min using an UV detector (325 nm). The quantification of cytokines was determined by Magnetic Luminex Assay with a human premixed Multi Analyte Kit (R&D Systems, Minneapolis, MN, USA). The urea, albumin and total protein levels were measured with the cobas c311 automated analyzer with corresponding test kits from Roche (Penzberg, Germany).

human whole blood [2] = assay: Whole blood cell model: LPS stimulation, cytokine measurement; type: cell-based; details: + CytoSorb
Method: (§5) Subsequently, the blood was split into two experimental groups: one was treated with CytoSorb in a batch setup, and the other served as an untreated control, incubated under identical conditions at 37 °C on a roller mixer. Following treatment, all samples were allowed to rest for 4 h. After the resting period, blood samples were stimulated with either lipopolysaccharide (LPS) E. coli or with anti-CD3 antibodies. […] The stimulation was carried out for 4 h at 37 °C on a roller mixer. Thereafter, the blood samples were centrifuged, and the plasma was collected and stored at −80 °C. Leukocyte activation was assessed by quantification of IL-1β, IL-6, IL-8, and TNF-α.

[3] = Determination of protein binding by ultrafiltration; type: in vitro ADME; details: human plasma, ultrafiltration 30 kDa cutoff; for fraction unbound: read-out: Protein Binding in Plasma, Current Study (converted)
Method: To assess protein binding of the tested immunosuppressants, human plasma was spiked with the respective drugs and urea as a freely diffusible control. Samples were then subjected to ultrafiltration (30 kDa cutoff, 15,000× g, 20 min). The protein-bound fraction was calculated using the following formula:(1) protein binding %= 1−Cfiltrate/Cplasma where cplasma is the concentration of each compound in plasma and cfiltrate is its concentration in the ultrafiltrate.

[4] = parameters: method as in earlier work; details: literature; ref 23 (methylprednisolone), 24 (mycophenolate), 41 (6-mercaptopurine); cited from earlier work
human whole blood [5] = assay: Whole blood cell model: anti-CD3 stimulation, cytokine measurement; type: cell-based; details: + Anti-CD3, + CytoSorb
Method: as §5

[6] = Removal of immunosuppressants by chronic dialysis (ex vivo, plasma); type: in vitro ADME, human
Method: (§2) To evaluate the effect of dialysis under clinically relevant conditions, both chronic and acute dialysis settings were simulated using standard Fresenius systems. In all experiments, 1.5 L of citrated human plasma was dialyzed against calcium-free dialysate at 37 °C.
(§3) Prior to circulation, the systems were flushed with 2 L of isotonic saline. Plasma samples were collected at defined time points (15–480 min) and analyzed for immunosuppressants, urea, and albumin. Chronic dialysis represents intermittent high-flow conditions, whereas acute dialysis mimics continuous low-flow therapy used in critically ill patients.
(§4) The clearance (C) of each compound during both the dialysis and the dynamic CytoSorb experiments was calculated using the first-order exponential decay formula:(2) C = V/t ×lnCo/Ct where V = plasma volume, t = treatment time [min], C0 = concentration before starting treatment, Ct = concentration at time t.

[7] = Dynamic CytoSorb adsorption setup (scaled-down circuit, whole blood); type: in vitro ADME, human; details: for mean clearance rate: CytoSorb treatment, at 15 min, Equation (2); for adsorption (removal) by CytoSorb: dynamic ex vivo circuit, 400 mL human whole blood, 30 mL cartridge, 4 h; for reduction of serum levels by CytoSorb (abstract): as stated in the abstract, experiment not specified
Method: To quantify the depletion of selected immunosuppressants during CytoSorb treatment under dynamic conditions, a scaled-down extracorporeal circulation system was established, consisting of a 30 mL CytoSorb adsorption cartridge and a pediatric tubing set filled with 400 mL of freshly drawn human whole blood (Figure 1b). To distinguish between drug removal by adsorption versus uptake by blood components, a control circuit with an identical setup but an empty cartridge was run in parallel for each experiment. Whole blood from two healthy donors of the same blood group was pooled, anticoagulated with citrate (final concentration: 7 mM), spiked with the immunosuppressants, and divided into two 400 mL blood bags.
Prior to circulation, the entire system was flushed with isotonic saline. Then, one of the prepared blood bags (Group 1 or Group 2) was connected to the circuit and circulated for 30 min at 37 °C without the adsorber cartridge to allow for equilibration. Following this equilibration, a baseline sample (0 min) was collected, and the adsorption column was introduced into the circuit. In the adsorption circuit, samples were collected at 15, 30, 60, 120, 180 and 240 min. In the control circuit, samples were taken at baseline and after 240 min. All blood samples were centrifuged (3500× g, 10 min) to separate plasma, which was stored at −80 °C until further analysis.
as §4, §1

[8] = literature; ref 21 (6-MP), 22 (CsA), 23 (MPR), 24 (MPA), 25 (TAC); cited from earlier work
[9] = Whole blood cell model: immunosuppressant serum levels after CytoSorb treatment; type: in vitro ADME, human; details: overnight incubation, p < 0.05, n = 6
Method: To investigate whether the in vitro depletion of immunosuppressants by CytoSorb affects immunosuppression, a whole blood cell model was established. The experiment was conducted over two consecutive days. A graphical overview of the setup is provided in Supplementary Figure S1. On day one, freshly drawn human whole blood was incubated overnight at 37 °C with various immunosuppressants, either individually or in combination, to allow for sufficient drug exposure prior to CytoSorb treatment.
Subsequently, the blood was split into two experimental groups: one was treated with CytoSorb in a batch setup, and the other served as an untreated control, incubated under identical conditions at 37 °C on a roller mixer. Following treatment, all samples were allowed to rest for 4 h. After the resting period, blood samples were stimulated with either lipopolysaccharide (LPS) E. coli or with anti-CD3 antibodies. LPS primarily activates monocytes and neutrophils via the TLR4/CD14/MD2 complex, while anti-CD3 specifically stimulates T cells. The stimulation was carried out for 4 h at 37 °C on a roller mixer. Thereafter, the blood samples were centrifuged, and the plasma was collected and stored at −80 °C. Leukocyte activation was assessed by quantification of IL-1β, IL-6, IL-8, and TNF-α.
as §1

[10] = Removal of immunosuppressants by acute dialysis (CVVHD, ex vivo, plasma); type: in vitro ADME, human
Method: as §2, §3, §4

COc1c(C)c2c(c(O)c1C/C=C(\C)CCC(=O)O)C(=O)OC2 [MPA, mycophenolic acid]
reduction of level in plasma by CytoSorb [1]: 37 ± 6%
IL-1β serum level (human whole blood [2]; test 1): 992 pg/mL
IL-6 serum level (human whole blood [2]; test 1): 3303 pg/mL
IL-8 serum level (human whole blood [2]; test 1): 4068 pg/mL
TNF-α serum level (human whole blood [2]; test 1): 3390 pg/mL
IL-1β serum level (human whole blood [2]; test 2): 112 pg/mL
IL-6 serum level (human whole blood [2]; test 2): 627 pg/mL
IL-8 serum level (human whole blood [2]; test 2): 2855 pg/mL
TNF-α serum level (human whole blood [2]; test 2): 1274 pg/mL
IL-1β serum level (human whole blood [2]; test 3): 1465 pg/mL
IL-6 serum level (human whole blood [2]; test 3): 16855 pg/mL
IL-8 serum level (human whole blood [2]; test 3): 15529 pg/mL
TNF-α serum level (human whole blood [2]; test 3): 720 pg/mL
fraction unbound [3]: 0.021
volume of distribution (Vd) [4]: ≈ 3.6 L/kg
IL-1β serum level (human whole blood [5]; test 1): 0 pg/mL
IL-6 serum level (human whole blood [5]; test 1): 4 pg/mL
IL-8 serum level (human whole blood [5]; test 1): 564 pg/mL
TNF-α serum level (human whole blood [5]; test 1): 107 pg/mL
IL-1β serum level (human whole blood [5]; test 2): 115 pg/mL
IL-6 serum level (human whole blood [5]; test 2): 645 pg/mL
IL-8 serum level (human whole blood [5]; test 2): 3704 pg/mL
TNF-α serum level (human whole blood [5]; test 2): 109 pg/mL
IL-1β serum level (human whole blood [5]; test 3): 170 pg/mL
IL-6 serum level (human whole blood [5]; test 3): 952 pg/mL
IL-8 serum level (human whole blood [5]; test 3): 4924 pg/mL
TNF-α serum level (human whole blood [5]; test 3): 55 pg/mL
removal by dialysis (in words) [6]: only slightly reduced
mean clearance rate [7]: approximately 44 mL/min
adsorption (removal) by CytoSorb [7]: 76 ± 2%
Protein Binding in Plasma, Reference [8]: 97 [24] %
reduction in serum level following CytoSorb treatment (in words) [9]: significant reduction

C[C@H]1C[C@@H]2[C@H]([C@@H](O)C[C@@]3(C)[C@H]2CC[C@]3(O)C(=O)CO)[C@@]2(C)C=CC(=O)C=C12 [MPR, methylprednisolone]
reduction of level in plasma by CytoSorb [1]: 91 ± 2%
IL-1β serum level (human whole blood [2]; test 1): 354 pg/mL
IL-6 serum level (human whole blood [2]; test 1): 3786 pg/mL
IL-8 serum level (human whole blood [2]; test 1): 6337 pg/mL
TNF-α serum level (human whole blood [2]; test 1): 2920 pg/mL
IL-1β serum level (human whole blood [2]; test 2): 26 pg/mL
IL-6 serum level (human whole blood [2]; test 2): 73 pg/mL
IL-8 serum level (human whole blood [2]; test 2): 1630 pg/mL
TNF-α serum level (human whole blood [2]; test 2): 416 pg/mL
IL-1β serum level (human whole blood [2]; test 3): 190 pg/mL
IL-6 serum level (human whole blood [2]; test 3): 3799 pg/mL
IL-8 serum level (human whole blood [2]; test 3): 7104 pg/mL
TNF-α serum level (human whole blood [2]; test 3): 1250 pg/mL
fraction unbound [3]: 0.066
volume of distribution (Vd) [4]: ≈ 1.4 L/kg
IL-1β serum level (human whole blood [5]; test 1): 0 pg/mL
IL-6 serum level (human whole blood [5]; test 1): 1 pg/mL
IL-8 serum level (human whole blood [5]; test 1): 171 pg/mL
TNF-α serum level (human whole blood [5]; test 1): 43 pg/mL
IL-1β serum level (human whole blood [5]; test 2): 44 pg/mL
IL-6 serum level (human whole blood [5]; test 2): 16 pg/mL
IL-8 serum level (human whole blood [5]; test 2): 242 pg/mL
TNF-α serum level (human whole blood [5]; test 2): 57 pg/mL
IL-1β serum level (human whole blood [5]; test 3): 70 pg/mL
IL-6 serum level (human whole blood [5]; test 3): 30 pg/mL
IL-8 serum level (human whole blood [5]; test 3): 686 pg/mL
TNF-α serum level (human whole blood [5]; test 3): 41 pg/mL
removal by dialysis (in words) [6]: high removal
clearance ([6]; initial values): ~ 75 mL/min
mean clearance rate [7]: ~49 mL/min
reduction of serum levels by CytoSorb (abstract) [7]: 92 ± 3%
adsorption (removal) by CytoSorb [7]: 92 ± 3%
Protein Binding in Plasma, Reference [8]: 77 [23] %
removal by dialysis (in words) [10]: moderate removal
clearance ([10]; after 8 h): below 10 mL/min
clearance ([10]; highest value reached): ≤ 28 mL/min
reduction in serum level following CytoSorb treatment (in words) [9]: significant reduction

C=CC[C@@H]1/C=C(\C)C[C@H](C)C[C@H](OC)[C@H]2O[C@@](O)(C(=O)C(=O)N3CCCC[C@H]3C(=O)O[C@H](/C(C)=C/[C@@H]3CC[C@@H](O)[C@H](OC)C3)[C@H](C)[C@@H](O)CC1=O)[C@H](C)C[C@@H]2OC [TAC, tacrolimus]
reduction of level in plasma by CytoSorb [1]: not affected
IL-1β serum level (human whole blood [2]; test 1): 412 pg/mL
IL-6 serum level (human whole blood [2]; test 1): 7095 pg/mL
IL-8 serum level (human whole blood [2]; test 1): 7756 pg/mL
TNF-α serum level (human whole blood [2]; test 1): 1967 pg/mL
IL-1β serum level (human whole blood [2]; test 2): 62 pg/mL
IL-6 serum level (human whole blood [2]; test 2): 584 pg/mL
IL-8 serum level (human whole blood [2]; test 2): 2388 pg/mL
TNF-α serum level (human whole blood [2]; test 2): 1337 pg/mL
IL-1β serum level (human whole blood [2]; test 3): 646 pg/mL
IL-6 serum level (human whole blood [2]; test 3): 23302 pg/mL
IL-8 serum level (human whole blood [2]; test 3): 50044 pg/mL
TNF-α serum level (human whole blood [2]; test 3): 690 pg/mL
Protein Binding in Plasma, Current Study [3]: 97.9 ± 10.9%
IL-1β serum level (human whole blood [5]; test 1): 18 pg/mL
IL-6 serum level (human whole blood [5]; test 1): 28 pg/mL
IL-8 serum level (human whole blood [5]; test 1): 1654 pg/mL
TNF-α serum level (human whole blood [5]; test 1): 38 pg/mL
IL-1β serum level (human whole blood [5]; test 2): 93 pg/mL
IL-6 serum level (human whole blood [5]; test 2): 773 pg/mL
IL-8 serum level (human whole blood [5]; test 2): 8613 pg/mL
TNF-α serum level (human whole blood [5]; test 2): 53 pg/mL
IL-1β serum level (human whole blood [5]; test 3): 268 pg/mL
IL-6 serum level (human whole blood [5]; test 3): 2598 pg/mL
IL-8 serum level (human whole blood [5]; test 3): 25920 pg/mL
TNF-α serum level (human whole blood [5]; test 3): 85 pg/mL
removal by dialysis (in words) [6]: not effectively removed
clearance ([6]; throughout): below 2 mL/min
mean clearance rate [7]: around 15 mL/min
reduction of serum levels by CytoSorb (abstract) [7]: no significant effect
adsorption (removal) by CytoSorb [7]: 18 ± 16%
removal by dialysis (in words) [10]: not effectively removed
reduction in serum level following CytoSorb treatment (in words) [9]: no significant adsorption
